# Assay results reported in patent publication US11912706B2, “Crystal forms of a POL1 inhibitor” (PIMERA, INC., priority 2017, dated 2024).
# Columns and labels:
# Format in all cases: physicochemical
# [1] = 7 day stability test of crystal forms (PXRD post storage); conditions: 7-day storage
# Protocol: 10 mg of Forms 1, 2, 3, 4 and 5 were weighed out into separate vials.
# […] After completion, PXRD analysis was performed on each of these samples.
# [2] = Further stability studies of Form 1 (2 and 4 weeks; PXRD, NMR, HPLC)
# Protocol: 10 mg of Form 1 was weighed out into each of 12 vials. […] vials were placed in each storage condition of: (1) 40° C. with an open cap; (2) 75% RH with an open cap; (3) 50° C. with a closed cap; and (4) room temperature with a closed cap.
# Two (2) vials were extracted at each time point of 2 and 4 weeks and PXRD, NMR and HPLC analysis was performed.
# [3] = Gravimetric Vapor Sorption (GVS); conditions: up to 90% relative humidity (RH)
# Protocol: Approximately 10-20 mg of sample was placed into a mesh vapor sorption balance pan and loaded into an IGAsorp Moisture Sorption Analyzer balance by Hiden Analytical.
# The sample was subjected to a ramping profile from 40% to 90% relative humidity (RH) at 10% increments, maintaining the sample at each step until a stable weight had been achieved (98% step completion). After completion of the sorption cycle, the sample was dried using the same procedure to 0% RH, and finally taken back to the starting point of 40% RH. The weight change during the sorption/desorption cycles was plotted, allowing for the hygroscopic nature of the sample to be determined.
# [4] = Rapid solvent solubility screen; conditions: thermodynamic from solid
# Protocol: Thirteen solvents were chosen for a rapid solvent solubility screen (See, Table 1). 10 mg of multiphasic Compound (I) prepared according to Example 1 was placed in each of 13 vials and 5 volume aliquots of the appropriate solvent systems were added to each vial.
# Between each addition, the mixture was checked for dissolution and if no dissolution was apparent, the mixture was heated to 40° C. and checked again. This procedure was continued until dissolution was observed or until 100 volumes of solvent had been added.
# [5] = Competitive slurrying of Form 1 and Form 5; conditions: dichloromethane, heptane, methanol; ambient, 60° C. or 35° C.; 24 hours
# Protocol: Saturated solutions of Compound (I) in multiphasic form were created in two solutions each dichloromethane, heptane and methanol.
# 10 mg of Form 1 and Form 5 were added to each vial. […] was stirred at ambient conditions for a period of 24 hours, while the other heptane and methanol vials were stirred at 60° C. for 24 hours.
# The remaining dichloromethane vial was stirred at 35° C. for 24 hours. The resulting material was analyzed by PXRD, before being dried with a vacuum pump overnight to dry before DSC analysis of samples.
# [6] = ambient conditions (closed vial)
compound,measurement,setting,value
"CNC(=O)c1cc2ccc(N3CCCN(C)CC3)nc2n2c1nc1ccccc12 [Form 1, N-methyl-2-(4-methyl-1,4-diazepan-1-yl)benzo[4,5]imidazo[1,2-a][1,8]naphthyridine-6-carbaxomide]",Form stability after storage (PXRD),[1]; 40° C./75% RH (closed vial),stable and maintains its form
same,Form stability after storage (PXRD),[1]; [6],stable and maintains its form
same,Structural integrity post stability testing (NMR),"[2]; 2 and 4 weeks, 40° C./75% RH, 50° C., room temperature",maintains its structural integrity and does not degrade
same,Form stability after storage (PXRD),"[2]; 2 weeks and 4 weeks, 40° C./75% RH, 50° C. and RT",stable and maintains its form
same,% Purity (HPLC) post stability studies,"[2]; 40° C./75% Relative Humidity, 2 weeks",99.3%
same,% Purity (HPLC) post stability studies,"[2]; 40° C./75% Relative Humidity, 4 weeks",99.6%
same,% Purity (HPLC) post stability studies,"[2]; 50° C./Ambient % RH, 2 weeks",99.4%
same,% Purity (HPLC) post stability studies,"[2]; 50° C./Ambient % RH, 4 weeks",99.7%
same,% Purity (HPLC) post stability studies,"[2]; Room Temperature, 2 weeks",99.2%
same,% Purity (HPLC) post stability studies,"[2]; Room Temperature, 4 weeks",99.1%
"CNC(=O)c1cc2ccc(N3CCCN(C)CC3)nc2n2c1nc1ccccc12 [Compound (I), N-methyl-2-(4-methyl-1,4-diazepan-1-yl)benzo[4,5]imidazo[1,2-a][1,8]naphthyridine-6-carbaxomide]",hygroscopic nature (GVS),[3],non-hygroscopic
same,mass uptake (GVS),[3],0.8%
same,solubility,"[4]; acetonitrile, 40 °C, organic solvent or mixture",< 10000 µg/mL
same,solubility,"[4]; dichloromethane, organic solvent or mixture",200000 µg/mL
same,solubility,"[4]; dimethylformamide, 40 °C, organic solvent or mixture",< 10000 µg/mL
same,solubility,"[4]; ethanol, 40 °C, organic solvent or mixture",< 10000 µg/mL
same,solubility,"[4]; ethyl acetate, 40 °C, organic solvent or mixture",< 10000 µg/mL
same,solubility,"[4]; heptane, 40 °C, organic solvent or mixture",< 10000 µg/mL
same,solubility,"[4]; majority of the thirteen solvents assessed, 40 °C, organic solvent or mixture, majority of solvents assessed",< 10000 µg/mL
same,solubility,"[4]; methanol, organic solvent or mixture",12500 µg/mL
same,solubility,"[4]; organic solvent or mixture, Acetone, up to 100 volumes, heated to 40° C. if no dissolution",< 10000 µg/mL
same,solubility,"[4]; propan-2-ol, 40 °C, organic solvent or mixture",< 10000 µg/mL
same,solubility,"[4]; t-butylmethyl ether, 40 °C, organic solvent or mixture",< 10000 µg/mL
same,solubility,"[4]; tetrahydrofuran, 40 °C, organic solvent or mixture",< 10000 µg/mL
same,solubility,"[4]; toluene, 40 °C, organic solvent or mixture",< 10000 µg/mL
same,solubility,"[4]; water, 40 °C",< 10000 µg/mL
"CNC(=O)c1cc2ccc(N3CCCN(C)CC3)nc2n2c1nc1ccccc12 [Form 3, N-methyl-2-(4-methyl-1,4-diazepan-1-yl)benzo[4,5]imidazo[1,2-a][1,8]naphthyridine-6-carbaxomide]",Form stability after storage (PXRD),[1]; 40° C./75% RH (closed vial),transitions to Form 1
same,Form stability after storage (PXRD),[1]; [6],stable and maintains its form
"CNC(=O)c1cc2ccc(N3CCCN(C)CC3)nc2n2c1nc1ccccc12 [Form 2, N-methyl-2-(4-methyl-1,4-diazepan-1-yl)benzo[4,5]imidazo[1,2-a][1,8]naphthyridine-6-carbaxomide]",Form stability after storage (PXRD),[1]; 40° C./75% RH (closed vial),transitions to Form 1
same,Form stability after storage (PXRD),[1]; [6],stable and maintains its form
"CNC(=O)c1cc2ccc(N3CCCN(C)CC3)nc2n2c1nc1ccccc12 [Form 4, N-methyl-2-(4-methyl-1,4-diazepan-1-yl)benzo[4,5]imidazo[1,2-a][1,8]naphthyridine-6-carbaxomide]",Form stability after storage (PXRD),[1]; 40° C./75% RH (closed vial),transitions to Form 1
same,Form stability after storage (PXRD),[1]; [6],stable and maintains its form
"CNC(=O)c1cc2ccc(N3CCCN(C)CC3)nc2n2c1nc1ccccc12 [Form 5, N-methyl-2-(4-methyl-1,4-diazepan-1-yl)benzo[4,5]imidazo[1,2-a][1,8]naphthyridine-6-carbaxomide]",Form stability after storage (PXRD),[1]; 40° C./75% RH (closed vial),stable and maintains its form
same,Form stability after storage (PXRD),[1]; [6],stable and maintains its form
same,Form transition in competitive slurry (PXRD of damp slurry residue),[5],transition from Form 5 towards Form 1
